Assay results taken from patent US6844345B2, “Piperazine derivatives” (priority 2001, dated 2005).
Where two headings read alike, the source gives them in different places.

Experiments:
5-HT2C receptor [1] = molecular target: T1, 5-HT2C receptor (Homo sapiens, UniProt P28335); experiment: Functional activity, FLIPR calcium assay in CHO cells expressing human 5-HT2C; assay type: cell-based; set-up: expressed in transfected cells; host or cells: CHO cells; conditions: for h5-HT2c Relative Efficacy: maximum fluorescent signal relative to 10 μM 5-HT (defined as 100%)
T1 sequence (P28335 33-458): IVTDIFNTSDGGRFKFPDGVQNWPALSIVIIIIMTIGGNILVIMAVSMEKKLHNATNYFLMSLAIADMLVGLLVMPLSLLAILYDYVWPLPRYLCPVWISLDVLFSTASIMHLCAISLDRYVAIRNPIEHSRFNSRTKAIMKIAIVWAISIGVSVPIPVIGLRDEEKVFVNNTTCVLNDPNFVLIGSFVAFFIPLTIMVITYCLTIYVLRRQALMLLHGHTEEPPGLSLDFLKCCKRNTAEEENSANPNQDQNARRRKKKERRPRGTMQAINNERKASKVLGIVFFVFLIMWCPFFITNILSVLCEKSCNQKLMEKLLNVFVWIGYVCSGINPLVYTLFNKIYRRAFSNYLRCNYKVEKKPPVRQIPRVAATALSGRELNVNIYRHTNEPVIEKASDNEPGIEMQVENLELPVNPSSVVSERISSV
Experimental: (§1) The functional activity of compounds of formula (I) was assayed using a Fluorimetric Imaging Plate reader (FLIPR). CHO cells expressing the human 5-HT2C or human 5-HT2A receptors were counted and plated into standard 96 well microtitre plates on the day before testing to give a confluent monolayer. The cells were then dye loaded with the calcium sensitive dye, Fluo-3-AM. Unincorporated dye was removed using an automated cell washer to leave a total volume of 100 μL/well of assay buffer (Hanks balanced salt solution containing 20 mM Hepes and 2.5 mM probenecid). The drug (dissolved in 50 μL of the assay buffer) was added at a rate of 70 μL/sec to each well of the FLIPR 96 well plate during fluorescence measurements. The measurements were taken at 1 sec intervals and the maximum fluorescent signal was measured (approx. 10-15 secs after drug addition) and compared with the response produced by 10 μM 5-HT (defined as 100%) to which it was expressed as a percentage response (relative efficacy). Dose response curves were constructed using Graphpad Prism (Graph Software Inc.).

human 5-HT2B receptors = molecular target: T2, human 5-HT2B receptors (Homo sapiens, UniProt P41595); experiment: Binding to 5-HT2B receptor, [3H]-5-HT radioligand, Method (b); conditions: human receptor in CHO cell line, read-out: Ki (2B)
T2 construct: expressed in transfected cells; host or cells: CHO cell line
T2 sequence (P41595 whole entry): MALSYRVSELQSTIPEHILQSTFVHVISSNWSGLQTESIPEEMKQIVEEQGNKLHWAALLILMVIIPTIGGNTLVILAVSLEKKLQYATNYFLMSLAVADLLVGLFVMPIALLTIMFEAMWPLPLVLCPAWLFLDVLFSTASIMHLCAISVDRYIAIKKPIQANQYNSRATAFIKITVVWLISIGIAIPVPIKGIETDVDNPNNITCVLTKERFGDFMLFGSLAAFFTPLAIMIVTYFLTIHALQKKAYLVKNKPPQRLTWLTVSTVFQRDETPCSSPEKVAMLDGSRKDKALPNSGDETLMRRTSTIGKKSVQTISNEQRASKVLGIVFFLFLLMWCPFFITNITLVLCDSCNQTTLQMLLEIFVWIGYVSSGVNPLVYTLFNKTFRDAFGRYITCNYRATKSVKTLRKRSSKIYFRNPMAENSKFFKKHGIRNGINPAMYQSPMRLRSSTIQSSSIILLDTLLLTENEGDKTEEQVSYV
Experimental: (§2) The binding of compounds of formula (I) to serotonin receptors was determined in vitro by standard methods. The preparations were investigated in accordance with the assays given hereinafter.
Method (b): For the binding to the 5-HT2B receptor the 5-HT2B receptors were radiolabeled with [^3H]-5-HT. The affinity of the compounds for human 5-HT2B receptors in a CHO cell line was determined according to the procedure of K. Schmuck, C. Ullmer, P. Engels and H. Lubbert, FEBS Lett., 1994, 342, 85-90.

5-HT2A receptor [2] = molecular target: T3, 5-HT2A receptor (Homo sapiens, UniProt P28223); experiment: Functional activity, FLIPR calcium assay in CHO cells expressing human 5-HT2A; assay type: cell-based; set-up: expressed in transfected cells; host or cells: CHO cells; conditions: for h5-HT2A Relative Efficacy: maximum fluorescent signal relative to 10 μM 5-HT (defined as 100%)
T3 sequence (P28223 whole entry): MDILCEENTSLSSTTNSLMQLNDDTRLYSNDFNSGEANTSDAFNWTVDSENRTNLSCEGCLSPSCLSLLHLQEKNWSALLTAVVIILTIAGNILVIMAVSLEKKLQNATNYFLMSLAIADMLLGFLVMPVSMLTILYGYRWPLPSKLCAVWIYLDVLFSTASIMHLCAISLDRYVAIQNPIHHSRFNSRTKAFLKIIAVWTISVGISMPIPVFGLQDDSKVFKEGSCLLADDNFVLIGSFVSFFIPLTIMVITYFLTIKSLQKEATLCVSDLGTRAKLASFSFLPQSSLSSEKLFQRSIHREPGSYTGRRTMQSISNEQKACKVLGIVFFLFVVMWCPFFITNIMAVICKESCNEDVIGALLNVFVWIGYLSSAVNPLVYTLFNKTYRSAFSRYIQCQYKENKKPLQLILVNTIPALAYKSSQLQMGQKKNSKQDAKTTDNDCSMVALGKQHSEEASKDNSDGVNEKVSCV
Experimental: as §1

5-HT2A receptor [3] = molecular target: T3, 5-HT2A receptor; experiment: Binding to 5-HT2A receptor, [125I]-DOI radioligand, Method (c); set-up: expressed in transfected cells; host or cells: CHO cell line; conditions: CHO cell line, read-out: Ki (2A)
Experimental: as §2
Method (c): For the binding to the 5-HT2A receptor the 5-HT2A receptors were radiolabeled with [^125I]-DOI. The affinity of the compounds for 5-HT2A receptors in a CHO cell line was determined according to the procedure of D. J. McKenna and S. J. Peroutka, J. Neurosci., 1989, 9, 3482-90.

5-HT2C receptor [4] = molecular target: T1, 5-HT2C receptor; experiment: Binding to 5-HT2C receptor, [3H]-5-HT radioligand, Method (a); set-up: expressed in transfected cells; host or cells: CHO cell line; conditions: CHO cell line, read-out: Ki (2C)
Experimental: as §2
Method (a): For the binding to the 5-HT2C receptor the 5-HT2C receptors were radiolabeled with [^3H]-5-HT. The affinity of the compounds for 5-HT2C receptors in a CHO cell line was determined according to the procedure of D. Hoyer, G. Engel and H. O. Kalkman, European J. Pharmacol., 1985, 118, 13-23.

[5] = FLIPR, CHO cells, Fluo-3-AM, read-out: h5-HT2c EC50
[6] = FLIPR, CHO cells, Fluo-3-AM, read-out: h5-HT2A EC50

| melting point | SMILES | EC50 (5-HT2C receptor [1]; [5]) [nM] | h5-HT2c Relative Efficacy (5-HT2C receptor [1]) [%] | EC50 (5-HT2A receptor [2]; [6]) [nM] | h5-HT2A Relative Efficacy (5-HT2A receptor [2]) [%] | further results |
| --- | --- | --- | --- | --- | --- | --- |
| 241 °C (dec.) | Cc1cc2c(cc1Br)cc1n2[C@H](C)CNC1.Cl |  |  |  |  |  |
| 245 °C (dec.) | Cc1ccc2cc3n(c2c1)[C@H](C)CNC3.Cl |  |  |  |  |  |
| 234 to 237 °C (dec.) | C[C@@H]1CNCc2cc3c(Cl)cccc3n21.Cl |  |  |  |  |  |
| 232 °C | C[C@@H]1CNCc2cc3cc(Br)c(F)cc3n21.Cl |  |  |  |  |  |
|  | CCc1cccc2cc3n(c12)[C@H](C)CNC3 [Example 1, (R)-6-Ethyl-4-methyl-1,2,3,4-tetrahydro-pyrazino[1,2-a]indole] | 22 | 83 | 640 | 23 | Ki (human 5-HT2B receptors): 86 nM; Ki (5-HT2A receptor [3]): 205 nM; Ki (5-HT2C receptor [4]): 5 nM |
| 123 to 125 °C | C[C@@H]1CNCc2cc3ccc(C(F)(F)F)cc3n21 [Example 2, (R)-4-Methyl-7-trifluoromethyl-1,2,3,4-tetrahydro-pyrazino[1,2-a]indole] |  |  |  |  |  |
|  | Cc1c2n(c3c(C)c(Cl)ccc13)[C@H](C)CNC2.O=C(O)C(=O)O [Example 14, (R)-7-Chloro-4,6,10-trimethyl-1,2,3,4-tetrahydro-pyrazino[1,2-a]indole oxalate] | 0.4 | 88 | 536 | 34 |  |
| 58 to 60 °C | C[C@@H]1CNCc2cc3cccc(OC(F)(F)F)c3n21 [Example 17, (R)-4-Methyl-6-trifluoromethoxy-1,2,3,4-tetrahydro-pyrazino[1,2-a]indole] |  |  |  |  |  |
|  | C[C@@H]1CNCc2cc3ccc(Cl)cc3n21 [Example 20, (R)-7-Chloro-4-methyl-1,2,3,4-tetrahydro-pyrazino[1,2-a]indole] | 7 | 91 | 163 | 49 | Ki (human 5-HT2B receptors): 44 nM; Ki (5-HT2A receptor [3]): 23 nM; Ki (5-HT2C receptor [4]): 2.8 nM |
|  | Cc1ccc(C)c2c1cc1n2[C@H](C)CNC1 [Example 21, (R)-4,6,9-Trimethyl-1,2,3,4-tetrahydro-pyrazino[1,2-a]indole] |  | 80 |  | 76 | EC50 (5-HT2C receptor [1]): 5 nM; EC50 (5-HT2A receptor [2]): 121 nM |
